Data published in ChEMBL document CHEMBL2203043, “Carbonic anhydrase inhibitors. Regioselective synthesis of novel series 1-substituted 1,4-dihydro-4-oxo-3-pyridinesulfonamides and their inhibition of the human cytosolic isozymes I and II and transmembrane cancer-associated isozymes IX and XII” (Eur J Med Chem, 2012).

species: Homo sapiens; assay: Selectivity ratio of Ki for human CA2 to Ki for human CA9

**Q.** Which Ratio Ki does the source give for NS(=O)(=O)c1ccc(S(=O)(=O)Nc2cccc3c(Cl)c[nH]c23)cc1 here?
**A.** 0.33

**Q.** For CCOc1ccc2nc(S(N)(=O)=O)sc2c1, which Ratio Ki is on record?
**A.** 0.33

**Q.** Which Ratio Ki does the source give for CC(=O)/N=c1/sc(S(N)(=O)=O)nn1C here?
**A.** 0.33

**Q.** For CC(=O)Nc1nnc(S(N)(=O)=O)s1, which Ratio Ki is on record?
**A.** 0.33

**Q.** Which Ratio Ki does the source give for NS(=O)(=O)c1cc(Cl)c(Cl)c(S(N)(=O)=O)c1 here?
**A.** 0.33

biological target: Carbonic anhydrase 9 (Homo sapiens, UniProt Q16790); assay: Inhibition of human CA9 after 15 mins by stopped-flow CO2 hydrase assay

**Q.** How did the Ki turn out when Nc1nc(Cn2ccc(=O)c(S(N)(=O)=O)c2)nc(N2CCOCC2)n1 was run?
**A.** 72.5 nM

**Q.** How did the Ki turn out when NS(=O)(=O)c1cn(CC(=O)Nc2cccc([N+](=O)[O-])c2)ccc1=O was run?
**A.** 33.4 nM

**Q.** NS(=O)(=O)c1cn(CC(=O)Nc2ccc(Cl)cc2)ccc1=O was tested. Which Ki did it give?
**A.** 93.4 nM

**Q.** For Cc1ccc(S(=O)(=O)NNC(=O)Cn2ccc(=O)c(S(N)(=O)=O)c2)cc1, which Ki is on record?
**A.** 11.8 nM

**Q.** How did the Ki turn out when NS(=O)(=O)c1cn(Cc2nc3ccccc3c(=O)n2-c2ccc(Cl)cc2)ccc1=O was run?
**A.** 71.2 nM

**Q.** Which Ki does the source give for NS(=O)(=O)c1cn(CC(=O)NNC(=O)c2ccco2)ccc1=O here?
**A.** 56.1 nM

**Q.** Which Ki does the source give for NS(=O)(=O)c1cn(Cc2nc3ccccc3c(=O)n2-c2ccccc2)ccc1=O here?
**A.** 76.2 nM

**Q.** For NS(=O)(=O)c1cn(CC(=O)Nc2ccc(Cl)c([N+](=O)[O-])c2)ccc1=O, which Ki is on record?
**A.** 60.6 nM

**Q.** Which Ki does the source give for CC1=NN(c2nc(N)nc(Cn3ccc(=O)c(S(N)(=O)=O)c3)n2)C(C)(C)C1 here?
**A.** 66.3 nM

**Q.** With Cc1ccc(-n2c(Cn3ccc(=O)c(S(N)(=O)=O)c3)nc3ccccc3c2=O)cc1 as the molecule, how does the Ki read?
**A.** 70.3 nM

**Q.** Which Ki does the source give for N#CCCCn1ccc(=O)c(S(N)(=O)=O)c1 here?
**A.** 67.2 nM

**Q.** NS(=O)(=O)c1cn(CC(=O)NS(=O)(=O)c2ccc([N+](=O)[O-])cc2)ccc1=O was tested. Which Ki did it give?
**A.** 65.2 nM

**Q.** How did the Ki turn out when CN(C)c1nc(N)nc(Cn2ccc(=O)c(S(N)(=O)=O)c2)n1 was run?
**A.** 16.5 nM

**Q.** CCN(c1ccccc1)c1nc(N)nc(Cn2ccc(=O)c(S(N)(=O)=O)c2)n1 was tested. Which Ki did it give?
**A.** 50.1 nM

**Q.** Which Ki does the source give for NS(=O)(=O)c1cn(CC(=O)NS(=O)(=O)c2ccccc2Cl)ccc1=O here?
**A.** 29.7 nM

**Q.** With COC(=O)c1ccccc1NC(=O)Cn1ccc(=O)c(S(N)(=O)=O)c1 as the molecule, how does the Ki read?
**A.** 86.4 nM

**Q.** For CCOC(=O)Cn1ccc(=O)c(S(N)(=O)=O)c1, which Ki is on record?
**A.** 60.1 nM

**Q.** CC1=NN(c2nc(N)nc(Cn3ccc(=O)c(S(N)(=O)=O)c3)n2)CC1 was tested. Which Ki did it give?
**A.** 77.8 nM

**Q.** For Cc1noc(C)c1Cn1ccc(=O)c(S(N)(=O)=O)c1, which Ki is on record?
**A.** 23.1 nM

**Q.** How did the Ki turn out when Cc1cccc(C)c1NC(=O)Cn1ccc(=O)c(S(N)(=O)=O)c1 was run?
**A.** 17.3 nM

**Q.** For NS(=O)(=O)c1cn(CCO)ccc1=O, which Ki is on record?
**A.** 54.7 nM

**Q.** How did the Ki turn out when NS(=O)(=O)c1cn(CC2CC2)ccc1=O was run?
**A.** 85.1 nM

**Q.** Which Ki does the source give for NS(=O)(=O)c1cn(CC(=O)NS(=O)(=O)c2ccc(Cl)cc2)ccc1=O here?
**A.** 38.6 nM
